What was measured:
[1] = Lipid nanoparticle size and polydispersity by dynamic light scattering; assay type: physicochemical; conditions: LNP of cationic lipid/DSPC/cholesterol/PEG-lipid 50:10:38.5:1.5 with mRNA
Description: (§1) Briefly, a cationic lipid provided herein, DSPC, cholesterol, and PEG-lipid were solubilized in ethanol at a molar ratio of 50:10:38.5:1.5, and mRNA were diluted in 10 to 50 mM citrate buffer, pH=4. The LNPs were prepared at a total lipid to mRNA weight ratio of approximately 10:1 to 30:1 by mixing the ethanolic lipid solution with the aqueous mRNA solution at a volume ratio of 1:3 using a microfluidic apparatus, total flow rate ranging from 9-30 mL/min. Ethanol were thereby removed and replaced by DPBS using dialysis. Finally, the lipid nanoparticles were filtered through a 0.2 μm sterile filter.
(§2) Lipid nanoparticle size were determined by dynamic light scattering using a Malvern Zetasizer Nano ZS (Malvern UK) using a 173° backscatter detection mode. The encapsulation efficiency of lipid nanoparticles were determined using a Quant-it Ribogreen RNA quantification assay kit (Thermo Fisher Scientific, UK) according to the manufacturer's instructions.

[2] = Encapsulation efficiency of lipid nanoparticles (Quant-it Ribogreen RNA assay); assay type: physicochemical; conditions: LNP of cationic lipid/DSPC/cholesterol/PEG-lipid 50:10:38.5:1.5 with mRNA
Description: as §1, §2

[3] = Apparent pKa of LNP formulations by TNS fluorescence assay; conditions: LNP cationic lipid/DSPC/cholesterol/DMG-PEG 50/10/38.5/1.5 mol %, pH 3 to 9
Description: TNS was prepared as a 300 uM stock solution in distilled water. LNP formulations were diluted to 0.1 mg/ml total lipid in 3 mL of buffered solutions containing 50 mM sodium citrate, 50 mM sodium phosphate, 50 mM sodium borate, and 30 mM sodium chloride where the pH ranged from 3 to 9. An aliquot of the TNS solution was added to give a final concentration of 0.1 mg/ml and following vortex mixing fluorescence intensity was measured at room temperature in a Molecular Devices Spectramax iD3 spectrometer using excitation and mission wavelengths of 325 nm and 435 nm. A sigmoidal best fit analysis was applied to the fluorescence data and the pKa value was measured as the pH giving rise to half—maximal fluorescent intensity.

| SMILES | polydispersity [1] | size (nm) [1] | Encapsulation Efficiency [2] | Apparant Pka [3] |
| --- | --- | --- | --- | --- |
| CCCCCCCCC(CC)COP(=O)(NCCN(CC)CC)OCC(CC)CCCCCCCC (centres unmarked) [Compound 67] | 0.116 | 86.9 nm | 93.3% | 7.195 |
| CCCCCCCCC(CCCCCC)COC(=O)CCCCCOP(=O)(NCCCN(C)C)OCCCCCC(=O)OCC(CCCCCC)CCCCCCCC (centres unmarked) [Compound 45] | 0.12 | 63.18 nm | 102.8% | – |
| CCCCCCCCC(CCCCCC)C(C)OP(=O)(NCCN(CC)CC)OC(C)C(CCCCCC)CCCCCCCC (centres unmarked) [Compound 59] | 0.118 | 90.85 nm | 58.6% | 4.385 |
| CCCCCCCCC(CCCCCC)COP(=O)(NCCN(CCO)C1CCC1)OCC(CCCCCC)CCCCCCCC (centres unmarked) [Compound 57] | 0.196 | 78.22 nm | 91.0% | 5.325 |
| CCCCCCCCCOC(=O)CCCCCOP(=O)(NCCN(C)C)OCCCCCC(=O)OCCCCCCCCC [Compound 5] | 0.194 | 94.66 nm | 88.8% | 7.26 |
| CCCCCCCCC(CCCCCC)COP(=O)(NCCN(CCC)CCC)OCC(CCCCCC)CCCCCCCC (centres unmarked) [Compound 50] | 0.09 | 93.25 nm | 85.5% | – |
| CCCCCCCCCCCCCOP(=O)(OCCCCCCCCCCCCC)N1CCC(N2CCOCC2)CC1 [Compound 19] | 0.086 | 110.8 nm | 73.7% | 6.38 |
| CCCCCCCCCCCCCOP(=O)(NCCCN1CCCC1)OCCCCCCCCCCCCC [Compound 12] | 0.137 | 164.9 nm | 94.0% | 6.13 |
| CCCCCCCCC(CCCCCC)COP(=O)(NCCCN1CCOCC1)OCC(CCCCCC)CCCCCCCC (centres unmarked) [Compound 31] | 0.159 | 62.39 nm | 91.8% | 5.21 |
| CCCCCCCCC(CCCCCCCC)OC(=O)CCCCCCCOP(=O)(NCCCN(C)C)OCCCCCCC (centres unmarked) [Compound 43] | 0.196 | 76.16 nm | 98.3% | 8.08 |
| CCCCCCCCC(CCCCCC)COP(=O)(NCCN(C)C)OCC(CCCCCC)CCCCCCCC (centres unmarked) [Compound 21] | 0.105 | 80.66 nm | 70.2% | 4.79 |
| CCCCCCCC(CCCCCCC)COP(=O)(NCCN(CC)CC)OCC(CCCCCCC)CCCCCCC [Compound 84] | 0.175 | 52.13 nm | 89.9% | 5.484 |
| CCCCCCCCCCC(CCCCCCCC)COP(=O)(NCCN(CC)CC)OCC(CCCCCCCC)CCCCCCCCCC (centres unmarked) [Compound 78] | 0.234 | 63.03 nm | 95.2% | 5.969 |
| CCCCCCCCC(CCCCCC)COP(=O)(NCCN(CCO)CCCC)OCC(CCCCCC)CCCCCCCC (centres unmarked) [Compound 14] | 0.037 | 138.5 nm | 88.8% | 5.64 |
| CCCCCCCCC(CCCCCCCC)COP(=O)(NCCN(CC)CC)OCC(CCCCCCCC)CCCCCCCC [Compound 80] | 0.172 | 57.31 nm | 94.2% | 6.259 |
| CCCCCCCCCCC(CCCCCC)COP(=O)(NCCN(CC)CC)OCC(CCCCCC)CCCCCCCCCC (centres unmarked) [Compound 66] | 0.141 | 54.17 nm | 94.4% | 6.149 |
| CCCCCCCCC(CCCCCCCC)COP(=O)(NCCN(CC)CC)OCC(CCCCCC)CCCCCC (centres unmarked) [Compound 90] | 0.242 | 56.48 nm | 85.7% | 5.526 |
| CCCCCCCCC(CCCCCC)COP(=O)(NCCCN1CCC1)OCC(CCCCCC)CCCCCCCC (centres unmarked) [Compound 23] | 0.234 | 57.36 nm | 100.4% | 7.43 |
| CCCCCCCCC(CCCCCC)COP(=O)(NCCN(CCO)C1CCCC1)OCC(CCCCCC)CCCCCCCC (centres unmarked) [Compound 58] | 0.057 | 97.61 nm | 88.8% | 5.681 |
| CCCCCCCCC(CCCCCC)COP(=O)(OCCN1CCCCC1)OCC(CCCCCC)CCCCCCCC (centres unmarked) [Compound 77] | 0.138 | 63.36 nm | 85.2% | 5.309 |

| SMILES | polydispersity [1] | size (nm) [1] | Encapsulation Efficiency [2] | Apparant Pka [3] |
| --- | --- | --- | --- | --- |
| CCCCCCCCC(CCCCCC)COP(=O)(NCCN1CCCCCC1)OCC(CCCCCC)CCCCCCCC (centres unmarked) [Compound 28] | 0.204 | 77.49 nm | 48.1% | 4.92 |
| CCCCCCCCCCCCCOP(=O)(OCCCCCCCCCCCCC)N1CCC(N(C)C)CC1 [Compound 18] | 0.074 | 159.2 nm | 94.3% | 6.16 |
| CCCCCCCCCOC(=O)CCCCCOP(=O)(NCCCN(C)C)OCCCCCC(=O)OCCCCCCCCC [Compound 6] | 0.262 | 111.7 nm | 88.3% | 7.33 |
| CCCCCCCCC(CCCCCC)COP(=O)(NCCCN1CCCCC1)OCC(CCCCCC)CCCCCCCC (centres unmarked) [Compound 27] | 0.135 | 83.11 nm | 75.7% | 5.18 |
| CCCCCCCCCCCCCOP(=O)(NCCN1CCOCC1)OCCCCCCCCCCCCC [Compound 15] | 0.059 | 104.3 nm | 73.6% | 5.90 |
| CCCCCCCCCOC(=O)CCCCCCCOP(=O)(NCCCN(C)C)OCCCCCCCC(=O)OC(CCCCCCCC)CCCCCCCC (centres unmarked) [Compound 40] | 0.122 | 80.83 nm | 99.6% | 7.77 |
| CCCCCCCCC(CCCCCCCC)OC(=O)CCCCCCCOP(=O)(NCCCN(C)C)NCCCN(C)C [Compound 37] | 0.166 | 104.3 nm | 48.8% | 4.55 |
| CCCCCCCCC(CCCCCC)COP(=O)(NCCN(C)CCO)OCC(CCCCCC)CCCCCCCC (centres unmarked) [Compound 46] | 0.114 | 54.72 nm | 99.0% | 6.85 |
| CCCCCCCCC(CCCCCC)COP(=O)(NCCN(C(C)C)C(C)C)OCC(CCCCCC)CCCCCCCC (centres unmarked) [Compound 48] | 0.094 | 73.81 nm | 93.48% | – |
| CCCCCCCCC(CCCCCCCC)OC(=O)CCCCCCCOP(=O)(NCCN(C)C)OCCCCCCCC(=O)OC(CCCCCCCC)CCCCCCCC [Compound 38] | 0.094 | 108.5 nm | 45.9% | 5.84 |
| CCCCCCCCC(CCCCCC)COP(=O)(NCCN1CC2CC2C1)OCC(CCCCCC)CCCCCCCC (centres unmarked) [Compound 62] | 0.338 | 56.35 nm | 89.9% | 5.063 |
| CCCCCCCCC(CCC)COP(=O)(NCCN(CC)CC)OCC(CCC)CCCCCCCC (centres unmarked) [Compound 70] | 0.298 | 53.76 nm | 93.8% | 6.153 |
| CCCCCCCCCCCCCOP(=O)(NCCN1CCN(C(C)=O)CC1)OCCCCCCCCCCCCC [Compound 17] | 0.073 | 119.8 nm | 61.6% | 5.42 |
| CCCCCCC(CCCCCC)COP(=O)(NCCN1CCCC1)OCC(CCCCCC)CCCCCC [Compound 83] | 0.056 | 82.63 nm | 87.8% | 6.319 |
| CCCCCCCCC(CCCCCC)COP(=O)(NCCCN1CCCCCC1)OCC(CCCCCC)CCCCCCCC (centres unmarked) [Compound 29] | 0.09 | 84.8 nm | 58.9% | 5.51 |
| CCCCCCCCC(CCCCCC)COP(=O)(NCCN1CCCCC1)OCC(CCCCCC)CCCCCCCC (centres unmarked) [Compound 26] | 0.27 | 68.19 nm | 93.6% | 4.99 |
| CCCCCCCCC(CCCCCCCC)OC(=O)CCCCCCCOP(=O)(NCCN(C)C)OCCCCCCC (centres unmarked) [Compound 42] | 0.1 | 54.46 nm | 102.3% | – |
| CCCCCCCCC(CCCCCC)COP(=O)(NCCN1CC2CCCC2C1)OCC(CCCCCC)CCCCCCCC (centres unmarked) [Compound 61] | 0.163 | 69.3 nm | 82.85% | – |
| CCCCCCCCCCC(CCCCCCCCCC)COP(=O)(NCCN(CC)CC)OCC(CCCCCCCCCC)CCCCCCCCCC [Compound 86] | – | – | 81.0% | 4.924 |

— patent US20220331414A1, “LIPID COMPOUNDS AND LIPID NANOPARTICLE COMPOSITIONS” (Suzhou Abogen Biosciences Co., Ltd., priority 2020, published 2022)
